Assay in all cases: NCI-60 cell line screen, 48 h
For test [1], the system named is SK-MEL-5 melanoma.
Test [2] has as its system K-562 leukemia.
Test [3] has as its system HCT-15 colon.
The subject of test [4] is OVCAR-8 ovarian.
For test [5], the system named is MALME-3M melanoma.
For test [6], the system named is TK-10 renal.
For test [7], the system named is U251 CNS.
The subject of test [8] is IGROV1 ovarian.
Test [9] deals with SR leukemia.
In test [10] the test system is SF-295 CNS.

This note sets out measurements from PubChem BioAssay (NCI).

Structures are written as SMILES.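 1) Cells in 96-well plates. 2) Compound, 48 h, 5 concentrations. 3) Linear interpolation between surrounding doses. 4) Unreached endpoint = highest concentration. The concentration for 50% growth inhibition is given as GI50. TGI is the concentration that stops growth completely.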

Turning to `CC(C)C(=O)Nc1nc2nc[nH]c2c(=O)[nH]1`, the TGI in [1], in test [2], in test [3], in [4], in test [5] and in test [6] was more than 100 µM each time. In addition, the TGI in [7], in test [8], in [9] and in test [10] was more than 100 µM in each case.

With `CCN(CC)CCn1ccc(=O)c2cc3c(=O)ccn(CCN(CC)CC)c3c(C)c21`, the TGI in [1] came out at 29.1 µM; in test [2], 26.8 µM; in [3], 15.6 µM; in [4], 15.5 µM; in test [5], 29.6 µM; in [6] it was 26.7 µM. The TGI in test [7] was 19.7 µM; in [8], 22 µM; in test [9], 3.94 µM; in test [10], 17.2 µM.

As to `O=c1c2c([nH]c3cc4c(cc13)OCO4)-c1ccccc1CC2`, the TGI in test [1], in [2], in test [3], in [4], in test [5] and in test [6] was more than 100 µM in each case. Further, the TGI in test [7], in test [8], in test [9] and in [10] was more than 100 µM each time.

Regarding `CCN(Cc1ccc(F)c(F)c1)c1ccc(CO)c(Cl)c1`, the GI50 is 5.85 µM in test [1]; 1.37 µM in test [2]; 6.63 µM in test [3]; 11.9 µM in test [4]; 17.2 µM in [5]; 0.102 µM in test [6]. The GI50 is 0.867 µM in [7], 0.098 µM in test [8], 20.2 µM in test [9] and 0.51 µM in test [10]. The TGI in test [1] was found to be 20.3 µM; in [2], 21.5 µM; in test [3], 25 µM; in [4], 27.9 µM; in test [5], 33.3 µM; in test [6] it was 0.303 µM. The TGI in [7] was 15.1 µM; in [8] it was 0.477 µM; in test [9], 52.5 µM; in [10] it was 12.1 µM.

In the case of `C[C@H](Nc1ncnc2nc[nH]c12)c1cc2cccc(Cl)c2c(=O)n1-c1ccccc1`, the GI50 in test [1] is 25.8 µM; in test [2], 46.9 µM; in test [3] it was 31.5 µM; in [4], 27 µM; in test [5], 3.51 µM; in test [6] it was 2.8 µM. In addition, the GI50 in test [7] is 11.8 µM; in [8], 1.58 µM; in [9], 24.3 µM; in [10], 1.54 µM. The TGI was more than 100 µM in test [1]; more than 100 µM in [2]; more than 100 µM in test [3]; more than 100 µM in test [4]; more than 79.5 µM in test [5]; 45.5 µM in test [6]. For the same compound, the TGI in test [7] is more than 100 µM; in test [8], 7.51 µM; in [9], more than 100 µM; in test [10], more than 100 µM.

Consider `C=C1C(=O)O[C@H]2[C@H]1[C@H](OC(=O)/C(C)=C\C)CC(=C)[C@@H]1[C@H](O)[C@H]3O[C@@]3(C)[C@@]12O`, for which the TGI in test [1], in test [2], in [3], in test [4], in [5] and in test [6] was more than 100 µM in each case. Further, the TGI in [7], in test [8], in test [9] and in test [10] was more than 100 µM in each case.

Consider `COc1c(CCC[P+](c2ccccc2)(c2ccccc2)c2ccccc2)cc2c(c1OC)OCO2`, for which the GI50 in [1] was 1.33 µM; in test [2], 0.529 µM; in [3] it was 14.7 µM; in test [4] it was 2.66 µM; in test [5], 0.599 µM; in test [6] it was 4.71 µM. In addition, the GI50 in test [7] was 1.77 µM; in test [8], 1.02 µM; in test [9] it was 1.07 µM; in test [10] it was 2.62 µM. Besides, the TGI was 2.81 µM in test [1]; more than 100 µM in [2]; 71.1 µM in test [3]; more than 100 µM in [4]; 10.2 µM in [5]; 34.7 µM in test [6]. In addition, the TGI turned out to be 19.7 µM in test [7], 10.7 µM in test [8], 15 µM in [9] and 8.38 µM in [10].

As to `Cc1ccc(C(=O)O/N=C2/CCC/C2=C\c2ccccc2)cc1`, the TGI in [1], in test [2], in test [3], in test [4], in test [5] and in [6] was more than 100 µM each time. Moreover, the TGI in test [7], in test [8], in test [9] and in test [10] was more than 100 µM each time.

On to `C[C@@H](C(=O)Nc1ccc(Cl)cc1)C1CCC(c2ccnc3ccc(F)cc23)CC1` (stereo not given in full), for which the GI50 in test [1] was 3.22 µM; in [2], 5.1 µM; in [3], 8.32 µM; in test [4], 21 µM; in [5] it was 9.83 µM; in test [6], 6.04 µM. Also, the GI50 in test [7] is 20 µM; in [8] it was 9.11 µM; in [9], 2.23 µM; in test [10], 8.12 µM. The TGI in test [1] is 11.8 µM; in test [2] it was 67.4 µM; in test [3], more than 100 µM; in test [4], more than 100 µM; in [5], 60 µM; in test [6] it was 81.3 µM. In addition, the TGI in [7] was more than 100 µM; in test [8], more than 100 µM; in test [9], 12.1 µM; in test [10], more than 100 µM.

`COc1c2c(c3c(c1CCC(=O)O)OC(C)(C)C=C3)OC(C)(C)C=C2`: the TGI in test [1], in test [2], in test [3], in test [4], in test [5] and in test [6] was more than 100 µM each time. Besides, the TGI in test [7], in test [8], in test [9] and in [10] was more than 100 µM each time.
